Marks after values point to notes of the source that are not given here. Blank lines part the entries; values can stand above or below the compound they belong to.
Test: logP determination via retention times, calibrated with unbranched alkan-2-ones
Format: physicochemical
[1] = HPLC on reversed-phase C18, method *: 40° C., 0.1% aqueous formic acid and acetonitrile, linear gradient 10% to 95% acetonitrile
[2] = HPLC on reversed-phase C 18, EEC Directive 79/831 Annex V.A8, method *: 40° C., 0.1% aqueous formic acid and acetonitrile, linear gradient 10% to 95% acetonitrile

logP (method *: HPLC, reversed-phase C 18, 40° C., mobile phase 0.1% aqueous formic acid and acetonitrile, linear gradient from 10% to 95% acetonitrile): 3.67*
Compound: CCc1cccc(Nc2ncc(C(F)(F)F)c(NC3CC3)n2)c1 [compound 1034]

logP [1]: 1.73*
Compound: COc1ccc(Nc2ncc(Cl)c(NCC3CC3)n2)cc1 [compound 669]

logP (HPLC on reversed-phase C18, method *: 40° C., mobile phase 0.1% aqueous formic acid and acetonitrile, linear gradient 10% to 95% acetonitrile): 2.83*
Compound: CCCOc1cccc(Nc2ncc(Br)c(NC3CC3)n2)c1 [compound 336]

logP [2]: 1.97*
Compound: Fc1ccc(Nc2ncc(Cl)c(NCC3CC3)n2)cc1 [compound 550]

logP [1]: 2.37*
Compound: CO/N=C(\C)c1cccc(Nc2ncc(Cl)c(NC3CC3)n2)c1 [compound 732]

logP (method *: HPLC reversed-phase C 18, temperature 40° C., mobile phase 0.1% aqueous formic acid and acetonitrile, linear gradient 10% to 95% acetonitrile): 1.64*
Compound: CNC(=O)c1cccc(Nc2ncc(C#N)c(NC3CC3)n2)c1 [compound 608]

logP [2]: 1.66*
Compound: CCC(=O)Nc1cccc(Nc2ncc(Br)c(NCC3CC3)n2)c1 [compound 483]

logP [1]: 1.29*
Compound: CN1CC(=O)N(c2ccc(Nc3ncc(Cl)c(NC4CC4)n3)cc2)C1=O [Example 107]

From patent US20100081679A1, “DIAMINOPYRIMIDINES AS FUNGICIDES” (Bayer CropScience AG, priority 2007, published 2010)
